Ends that are not written are not given here.
Columns and labels:
[1] = Dissolution time; format: physicochemical
Protocol: The peptide was initially wetted with a small amount of solvent and left for 5 minutes and following added the full amount of solvent. The solution was swirled by hand and observation of final dissolution time noted.
1.6 or 3.2 mg AnxA1 was added to Milli Q® water at around neutral pH containing different salts (NaCl, CaCl2, ZnCl2 or HCl) according to table 2. Dissolution times was observed and the resulting solutions was analyzed using the ThT assay.

[2] = Visual appearance of solution; format: physicochemical
Protocol: The remainder of the peptide suspension was diluted to an assumed concentration of 5 mg/mL and 4*1 mL samples were adjusted to pH 2, 4, 6 and 8, (see FIG. 2). All 4 vials continued to be opaque indicating limited solubility.
Approximately 16 mg/mL AnxA1 was added to milliQ® water. The resulting pH was 7.5. pH was adjusted to pH 10 in one sample using 0.1 M NaOH and to pH 2 using 0.1 M HCl in another sample, according to table 3. The appearance of the solution was noted. At pH≥7.4 the solution was clear. At pH≤7.1>2.6 solutions where unclear. At pH≤2.6 the solution was again clear. Data are summarized the Table 3, see also FIG. 5.
AnxA1 samples are dissolved in Milli Q® water or 5% mannitol in Milli Q® water to approximately 18 mg/mL and pH was adjusted using 1.0 M HCl and NaOH. After dissolution visual appearance was noted and a photograph was taken, see FIG. 6 and Table 4, and a sample was cleared by centrifugation and the concentration determined in the supernatant using UV-VIS spectroscopy.
Isotonic samples containing 1.5-1.6 mg/mL AnxA1 and a tonicity provider (isotonicity modifier) was prepared around neutral pH according to the specification in table 5. […] The samples were subjected to the ThT assay previously described, where a higher lag-time was observed when using sucrose and mannitol as tonicity providers compared to using trehalose and glucose. The data presented in Table 5 is illustrated graphically in FIG. 7.

dissolution ([1]; 20 mg freeze-dried AnxA1 per mL 0.9% NaCl (154 mM) in Milli Q at neutral pH): not readily dissolved
Dissolution time (Notes) ([1]; AnxA1 1.5 mg/mL, NaCl 0.9%, ZnCl2 0.77 mM, pH N/A, after more than 2 hours): not fully solubilized
Dissolution time (Notes) ([1]; AnxA1 1.6 mg/mL in Milli Q water, no salt, pH 7.5): 5 min
Dissolution time (Notes) ([1]; AnxA1 1.6 mg/mL in Milli Q water, no salt, pH 7.6): 5 min
Dissolution time (Notes) ([1]; AnxA1 1.6 mg/mL, CaCl2 0.77 mM, pH 7.2): 5 min
Dissolution time (Notes) ([1]; AnxA1 1.6 mg/mL, CaCl2 0.77 mM, pH 7.4): 10 min
Dissolution time (Notes) ([1]; AnxA1 1.6 mg/mL, NaCl 0.9%, CaCl2 0.77 mM, pH 7.1): 35 min
Dissolution time (Notes) ([1]; AnxA1 3.2 mg/mL, NaCl 0.9%, pH 7.2): 45 min
dissolution time ([1]; Milli Q water around neutral pH, no addition of salt): less than 5 minutes
Visual appearance ([2]; AnxA1 1.5 mg/mL, glucose 5 wt.%, pH 7.1): Clear
Visual appearance ([2]; AnxA1 1.6 mg/mL, mannitol 5 wt.%, pH 6.7): Clear
Visual appearance ([2]; AnxA1 1.6 mg/mL, sucrose 10 wt.%, pH 7.2): Clear
Visual appearance ([2]; AnxA1 1.6 mg/mL, trehalose 10 wt.%, pH 7.2): Clear
Visual appearance ([2]; all isotonic samples, 1.5-1.6 mg/mL AnxA1 and a tonicity provider, around neutral pH): clear solutions
Description (visual appearance) ([2]; approximately 16 mg/mL AnxA1 in milliQ water, pH 2.6-2.0): Clear solution
Description (visual appearance) ([2]; approximately 16 mg/mL AnxA1 in milliQ water, pH 3.8-3.1): Starts clearing up
Description (visual appearance) ([2]; approximately 16 mg/mL AnxA1 in milliQ water, pH 6.1-4.2): Gel-like
Description (visual appearance) ([2]; approximately 16 mg/mL AnxA1 in milliQ water, pH 6.8-6.3): Milky, turbid
Description (visual appearance) ([2]; approximately 16 mg/mL AnxA1 in milliQ water, pH 7.1): Fluffy particles
Description (visual appearance) ([2]; approximately 16 mg/mL AnxA1 in milliQ water, pH ≥7.4): clear solution
appearance of the solution ([2]; approximately 16 mg/mL AnxA1 in milliQ water, pH≤7.1>2.6): unclear
Visual appearance ([2]; approximately 18 mg/mL AnxA1, pH 2, 4 and 6, with and without 5% mannitol in Milli Q water): unclear and or viscous solution
Visual appearance ([2]; approximately 18 mg/mL AnxA1, pH 8 and 10, with and without 5% mannitol in Milli Q water): clear solution
appearance ([2]; assumed 5 mg/mL AnxA1 in Milli Q water, 0.9% NaCl (154 mM), adjusted to pH 2, 4, 6 and 8): opaque
Substance: AMVSEFLKQAWFIENEEQEYVQTLKSSKGGPGSAVSPYPTFNPSSDV-NH2 [AnxA1]
